This assay deals with T1, Adenosine A1 (Rattus norvegicus, UniProt P25099).
T1 construct: gene Adora1; native receptor in rat forebrain P2 membranes
T1 sequence (P25099 1-326): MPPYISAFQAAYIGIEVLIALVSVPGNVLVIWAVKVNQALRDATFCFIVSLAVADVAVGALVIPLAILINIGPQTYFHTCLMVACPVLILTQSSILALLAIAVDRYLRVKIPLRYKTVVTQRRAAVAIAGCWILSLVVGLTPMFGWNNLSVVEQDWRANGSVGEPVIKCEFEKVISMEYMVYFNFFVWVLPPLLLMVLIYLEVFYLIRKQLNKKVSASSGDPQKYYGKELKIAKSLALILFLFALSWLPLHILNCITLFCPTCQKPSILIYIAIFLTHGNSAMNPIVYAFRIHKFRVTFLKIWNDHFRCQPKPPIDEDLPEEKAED
As to the kind of experiment: […]GTPγS binding, rat forebrain membranes. In kind it is biochemical. The settings on record: agonist; control without GSNO; 10 μM GDP, pH 7.4, 25 °C. For orientation: Binding of GTPγS marks nucleotide exchange on a G protein.

As for `Nc1nc(Cl)nc2c1ncn2[C@@H]1O[C@H](CO)[C@@H](O)[C@H]1O` [2-chloroadenosine], the “Control / log(EC50)” value is given as -6.90 ± 0.04.
